Results reported in PubChem BioAssay (NCI).
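Five compound concentrations were applied to cells in 96-well plates for 48 hours; endpoints were derived by simple linear interpolation of the resulting dose-response curve. Definition used: TGI = concentration required for complete inhibition of growth.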

Key:
Experiment in all cases: inhibition of tumour cell growth, NCI panel, 48 h
RPMI-8226 leukemia = tested on: RPMI-8226 leukemia
OVCAR-3 ovarian = tested on: OVCAR-3 ovarian
COLO 205 colon = tested on: COLO 205 colon
T-47D breast = tested on: T-47D breast
HCT-116 colon = tested on: HCT-116 colon
HT29 colon = tested on: HT29 colon
M14 melanoma = tested on: M14 melanoma
CAKI-1 renal = tested on: CAKI-1 renal
SF-539 CNS = tested on: SF-539 CNS
UO-31 renal = tested on: UO-31 renal
786-0 renal = tested on: 786-0 renal
ACHN renal = tested on: ACHN renal
SN12C renal = tested on: SN12C renal
MDA-MB-435 = tested on: MDA-MB-435
NCI-H23 lung = tested on: NCI-H23 lung
SK-MEL-5 melanoma = tested on: SK-MEL-5 melanoma
MDA-N = tested on: MDA-N
U251 CNS = tested on: U251 CNS
NCI-H226 lung = tested on: NCI-H226 lung
BT-549 breast = tested on: BT-549 breast

SMILES	TGI (RPMI-8226 leukemia) [µM]	TGI (OVCAR-3 ovarian) [µM]	TGI (COLO 205 colon) [µM]	TGI (T-47D breast) [µM]	TGI (HCT-116 colon) [µM]	TGI (HT29 colon) [µM]	TGI (M14 melanoma) [µM]	TGI (CAKI-1 renal) [µM]	TGI (SF-539 CNS) [µM]	TGI (UO-31 renal) [µM]	TGI (786-0 renal) [µM]	TGI (ACHN renal) [µM]	TGI (SN12C renal) [µM]	TGI (MDA-MB-435) [µM]	TGI (NCI-H23 lung) [µM]	TGI (SK-MEL-5 melanoma) [µM]	TGI (MDA-N) [µM]	TGI (U251 CNS) [µM]	TGI (NCI-H226 lung) [µM]	TGI (BT-549 breast) [µM]
CC(=O)OC[C@@]12CC[C@H]3C(C)(C)CCC[C@]3(C)[C@H]1C[C@@H](C1=CC(=O)O[C@H]1O)O2	7.27	3.99	10.4	8.67	9.07	7.71	7.65	5.21	5.28	4.95	3.32	5.12	12.4	4.6	5.01	9.08	5.53	–	–	–
O=C1CCCCC1C1(O)C(=O)Nc2cc(F)ccc21 (configuration not stated)	> 100	–	> 100	–	> 100	> 100	> 100	> 100	> 100	> 100	> 100	> 100	> 100	–	> 100	> 100	–	> 100	> 100	–
CSc1nc(C)cc(N(C)c2ccccc2)n1	> 100	97.3	> 100	–	> 100	49.5	> 100	> 100	66	> 100	> 100	> 100	> 100	53	95.3	56.2	61.3	> 100	93.9	–
CN(C)c1ccc(/C=C2\C[C@H]3[C@@H]4CCC5=CC(=O)CC[C@]5(C)[C@H]4CC[C@]3(C)C2=O)cc1	> 100	> 100	64.8	> 100	> 100	> 100	> 100	> 100	> 100	> 100	> 100	> 100	> 100	–	> 100	32.3	> 100	85.6	> 100	> 100
Cc1ccc(/C=C/C(=O)c2sc(C(N)=S)nc2C)cc1	> 100	> 100	> 100	–	–	> 100	–	> 100	> 100	> 100	> 100	> 100	> 100	–	> 100	> 100	–	> 100	> 100	–
Nn1c(-c2ccccc2Nc2ccccc2-c2n[nH]c(=S)n2N)n[nH]c1=S	> 50	> 50	> 50	–	> 50	> 50	> 50	–	> 50	> 50	> 50	> 50	–	> 50	> 50	> 50	–	> 50	> 50	> 50
CC(C)=CCC/C(C)=C/CC/C(C)=C/[C@@H]1[C@@H](CO)[C@]1(C)CC/C=C(\C)CCC=C(C)C	71.8	> 100	> 100	> 100	> 100	> 100	> 100	> 100	59	34.3	42.9	31.5	> 100	> 100	> 100	> 100	–	> 100	44.5	> 100
CC(=O)Oc1ccn2nc(C)c(Cc3c(C)nn4ccc(OC(C)=O)cc34)c2c1	–	> 100	–	> 100	> 100	> 100	> 100	> 100	> 100	–	> 100	> 100	> 100	50.4	> 100	> 100	> 10	> 100	> 100	–
CSc1nc2nc(C)c(C)nc2c(=O)[nH]1	> 100	> 100	> 100	–	> 100	> 100	> 100	> 100	–	> 100	> 100	> 100	> 100	–	> 100	> 100	–	> 100	–	–
C=CC1(c2ccc(Cl)c(Cl)c2)OCCO1	> 100	> 100	> 100	> 100	> 100	> 100	> 100	–	–	> 100	> 100	> 100	> 100	> 100	> 100	> 100	> 100	> 100	> 100	–
NC(=O)ON=C1CCN(Cc2ccccc2)CC1	> 100	> 100	> 100	> 100	> 100	> 100	> 100	> 100	> 100	> 100	> 100	> 100	> 100	> 100	> 100	> 100	> 100	> 100	> 100	–
C/C(=C/CNc1ncnc2c1ncn2CCC(=O)O)CO	> 100	> 100	> 100	> 100	> 100	> 100	> 100	> 100	> 100	> 100	> 100	> 100	> 100	> 100	> 100	> 100	> 100	–	> 100	–
COc1ccc(NC(=O)CSc2nnc(Cc3ccccc3)o2)cc1	> 100	> 100	> 100	–	> 100	> 100	> 100	> 100	> 100	> 100	> 100	> 100	> 100	–	> 100	> 100	–	> 100	> 100	–
C/C(Sc1ccccc1)=C1/CCCN(Cc2ccccc2)C1	43.3	38.8	32.9	33.5	–	> 100	35	> 100	> 100	40.9	50.3	> 100	–	87.7	79.5	28.6	> 100	57.8	41.6	–
OCC1C(O)C(O)[C@@H]2SCCN12 (some centres not stated)	> 100	> 100	> 100	> 100	> 100	> 100	> 100	> 100	–	> 100	> 100	> 100	–	> 100	> 100	> 100	–	> 100	> 100	> 100
N#Cc1ccc(Nc2cnc3cc(N)ccc3n2)cc1	> 100	> 100	> 100	–	> 100	> 100	> 100	> 100	> 100	> 100	> 100	> 100	> 100	–	> 100	> 100	–	> 100	> 100	–
CNC(=S)NNC(=O)c1c(C)nc2sccn12	–	> 100	> 100	–	> 100	> 100	–	> 100	> 100	–	> 100	> 100	> 100	–	> 100	> 100	–	> 100	> 100	–
CC(C)(C)OC(=O)N1C[C@H](CC(=O)OCc2ccccc2)C[C@H]1C(=O)OCC(Cl)(Cl)Cl	–	32.9	9.38	> 50	> 50	> 50	> 50	> 50	> 50	11	> 50	> 50	> 50	> 50	> 50	8.13	–	16.1	29.1	> 50
CSc1sc(C)cc1-c1nsc(=O)o1	> 100	–	> 100	–	> 100	> 100	> 100	> 100	–	> 100	> 100	> 100	> 100	> 100	> 100	> 100	> 100	> 100	–	–
CCOC(=O)CSc1[nH]c2nc(C)nc(Cl)c2c1C#N	> 10	–	> 10	> 10	–	> 10	> 10	> 10	–	–	> 10	–	> 10	> 10	> 10	> 10	> 10	–	–	–
CCN(CC)C(=O)C1=C(C)NC(C)=C(C(=O)N(CC)CC)C1	> 100	> 100	> 100	> 100	> 100	–	> 100	> 100	> 100	> 100	> 100	> 100	> 100	> 100	> 100	> 100	> 100	> 100	–	–
COC(=O)C(CCC1(C)OCCO1)C(C)=O (configuration not stated)	–	> 100	> 100	–	> 100	> 100	> 100	–	> 100	> 100	> 100	> 100	> 100	–	> 100	> 100	–	> 100	> 100	–
COC1=C(C)C(=O)C2C(C1=O)C(c1ccc(OC)c(OC)c1)[C@H]2C (some centres not stated)	> 100	> 100	> 100	–	–	> 100	> 100	> 100	> 100	> 100	> 100	> 100	–	–	> 100	> 100	–	> 100	> 100	–
Cc1cc(=O)cc2sc3cc(Cl)ccc3nc1-2	> 100	31.9	53.7	–	28.7	43.3	33.3	46.7	26.1	63.1	29	30.6	50.3	–	42.8	12.6	–	33.9	65.6	–
CCOC(=O)[C@H](Cc1ccccc1)NC(=O)c1nc[nH]c1[N+](=O)[O-]	> 100	> 100	> 100	–	> 100	> 100	> 100	> 100	> 100	> 100	> 100	> 100	> 100	–	> 100	> 100	–	> 100	> 100	–
CC(C)=C1C(=O)C[C@]2(C)C/C=C(\C)CC/C=C(\C)CC[C@@H]12	36.9	18.1	16.6	> 50	15.9	16.4	15.8	15.1	15.8	15.1	16.7	16.4	17.3	20	23.9	15.5	–	14.8	16	24.8
Fc1ccc(C2(CCCN3CCc4[nH]c5cc(F)ccc5c4C3)OCCO2)cc1	28.1	–	24.1	30.4	24	15	7.15	–	25.5	10.8	27.1	23.5	31.6	26.5	31.7	23.5	–	28.1	38.6	–
O=C(O)C(F)(OC(F)(F)C(F)(F)C(F)(F)F)C(F)(F)F (configuration not stated)	> 100	> 100	> 100	> 100	> 100	> 100	> 100	> 100	> 100	> 100	> 100	> 100	> 100	> 100	> 100	> 100	–	> 100	> 100	> 100
